The values below come from PubChem BioAssay AID401 (SGCOxCompounds, 2006).

The assay concerns the target Tyrosine-protein phosphatase non-receptor type 7 (Homo sapiens) (UniProt P35236). In words: inhibition of HePTP dephosphorylation activity – biochemical, DiFMUP fluorescence, recombinant human enzyme (AID 401). Conditions: recombinant PTPN7, DiFMUP fluorescence, at 50 µM, 25 °C, DTT 5 mM, hits give high values.

Chain of Tyrosine-protein phosphatase non-receptor type 7 (Homo sapiens) (P35236 whole entry, looked up): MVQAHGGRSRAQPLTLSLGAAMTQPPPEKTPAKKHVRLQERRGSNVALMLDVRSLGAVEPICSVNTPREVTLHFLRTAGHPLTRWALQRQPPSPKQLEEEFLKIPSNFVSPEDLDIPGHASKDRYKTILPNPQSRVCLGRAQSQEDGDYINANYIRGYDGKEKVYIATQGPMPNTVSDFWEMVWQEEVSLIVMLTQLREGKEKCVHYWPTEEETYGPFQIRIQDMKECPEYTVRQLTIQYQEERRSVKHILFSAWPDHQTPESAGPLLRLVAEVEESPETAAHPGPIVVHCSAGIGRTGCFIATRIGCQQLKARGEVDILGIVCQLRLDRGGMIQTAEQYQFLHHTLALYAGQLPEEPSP

With `O=C(O)c1ccc(O)c(C=Nc2cccc(-c3nc4ccccc4o3)c2)c1`, the inhibition (enzyme 55 ng/mL) was 40%. For the compound `COc1ccc(-c2nc3cc(N=Cc4cc(C(=O)O)ccc4O)ccc3o2)cc1`, under “enzyme 55 ng/mL”, the inhibition is 80%. Same read-out and setting: the same measure for `Cc1cccc(O)c1N=Cc1cc(C(=O)O)ccc1O`: 37%; for `COc1ccc(OC)c(N=Cc2cc(C(=O)O)ccc2O)c1`: 31%. `CC1=C(C)OC(Nc2ccc(Cl)cc2C(=O)O)C=C1` (configuration not stated): under “enzyme 55 ng/mL”, the inhibition was 25%. As to `O=C(O)c1ccc(O)c(C=Nc2ccc3oc(-c4cccc(Cl)c4)nc3c2)c1`, under “enzyme 55 ng/mL”, the inhibition is 25%. As to `Cc1c(Cl)c(C)c([N+](=O)[O-])c(O)c1C=Nc1ccc(O)cc1C(=O)O`, where the note is “enzyme 55 ng/mL”, the inhibition was 62%.

Take `CN(N=O)c1ccc(O)c(O)c1`: the inhibition (enzyme 55 ng/mL) is 92%. As to `Cc1ccc2nc(-c3cc(N=Cc4cc(C(=O)O)ccc4O)ccc3O)[nH]c2c1`, the inhibition (enzyme 55 ng/mL) was 98%. On to `CC(=O)c1ccc2c(c1)C1C=CCC1C(C(=O)O)N2` (configuration not stated), for which, for the setting “enzyme 55 ng/mL”, the inhibition is 89%. Consider `Oc1c(Cl)c(Cl)c(O)c2nsnc12`, for which the inhibition (enzyme 55 ng/mL) was 24%. Take `CCn1nc(-c2ccc(Cl)cc2)nc2c(=O)n(C)c(=O)nc1-2`: for the setting “enzyme 55 ng/mL”, the inhibition is 58%. As for `O=C(O)c1ccc(O)c(C=Nc2ccc3oc(-c4ccccc4)nc3c2)c1`, the inhibition (enzyme 55 ng/mL) was 31%.

As to `CCn1nc(/C=C/c2ccccc2)[n+](=O)c2c(=O)n(C)c(=O)[nH]c21`, the inhibition (enzyme 55 ng/mL) is 32%.

For `Cc1ccc(C)n1-c1ccc(C(=O)O)cc1O`, the inhibition (enzyme 55 ng/mL) was 47%. As for `COc1cccc(-c2nc3cc(N=Cc4cc(C(=O)O)ccc4O)ccc3o2)c1`, the inhibition (enzyme 55 ng/mL) is 56%. Consider `O=C1NC(=S)S/C1=C\C=C\c1ccc([N+](=O)[O-])o1`, for which the inhibition (enzyme 55 ng/mL) was 99%. In the case of `OO.OO.[K+].[O]=[V].c1ccc(-c2ccccn2)nc1`, the inhibition (enzyme 55 ng/mL) was 69%.

With `O=C(O)c1ccc(O)c(C=Nc2ccc3oc(-c4ccc(F)cc4Cl)nc3c2)c1`, the inhibition (enzyme 55 ng/mL) was 100%. With `O=C(COc1ccc([N+](=O)[O-])cc1)Nc1ccc(O)cc1C(=O)O`, the inhibition (enzyme 55 ng/mL) was 13%. For the compound `O=C(O)c1ccc(O)c(N2C(=O)Nc3ccccc3N2O)c1`, the inhibition (enzyme 55 ng/mL) is 41%. On to `CC(C)CCN1C(=O)c2ccc(C(=O)Nc3ccc(O)cc3C(=O)O)cc2C1=O`, for which, where the note is “enzyme 55 ng/mL”, the inhibition is 45%. Regarding `O=C(O)c1ccc(O)c(/C=N/N(CCO)C2=NS(=O)(=O)c3ccccc32)c1`, the inhibition (enzyme 55 ng/mL) was 57%. Take `NC1=NC(=O)/C(=C/C=C/c2ccc([N+](=O)[O-])o2)S1`: the inhibition (enzyme 55 ng/mL) is 94%. Consider `CCn1nc(/C=C/c2ccccc2)nc2c(=O)n(C)c(=O)nc1-2`, for which the inhibition (enzyme 55 ng/mL) was 39%.

For the compound `[NH-]CO.[NH-]CO.[NH-]CO.[NH-]CO.[O]=[V][O][V]=[O]`, the inhibition (enzyme 55 ng/mL) was 58%. Same read-out and setting: the same measure for `CCOC(=O)c1ccc(N=Cc2cc(C(=O)O)ccc2O)cc1`: 39%; for `CC(C)CN1C(=O)c2ccc(C(=O)Nc3ccc(O)cc3C(=O)O)cc2C1=O`: 26%; for `O=C(Nc1ccc(O)cc1C(=O)O)c1ccc2c(c1)C(=O)N(CC1CCCO1)C2=O` (configuration not stated): 35%.

In the case of `Cn1nc(-c2ccccc2)nc2c(=O)n(C)c(=O)nc1-2`, the inhibition (enzyme 37.6 ng/mL) is 37%. In the case of `CCn1nc(-c2ccccc2)nc2c(=O)n(C)c(=O)nc1-2`, the inhibition (enzyme 55 ng/mL) is 16%. Take `Cc1ccc(C)n1-c1cc(C(=O)O)ccc1O`: under “enzyme 55 ng/mL”, the inhibition is 77%. As for `OO.OO.[K+].[O]=[V].c1cnc2c(c1)ccc1cccnc12`, the inhibition (enzyme 37.6 ng/mL) was 55%. Turning to `O=C(O)c1ccc([O-])cn1.OO.OO.[K+].[K+].[O]=[V]`, the inhibition (enzyme 55 ng/mL) is 76%. On to `O=C1NC(=S)NC(=O)C1=C/C=C/c1ccco1`, for which the inhibition (enzyme 55 ng/mL) was 97%. Take `O=C(O)c1ccc(O)cn1.OO.[O]=[V]`: the inhibition (enzyme 37.6 ng/mL) is 58.5%. Turning to `O=C(O)c1ccc(O)c(C=Nc2ccc3oc(-c4cccc(Cl)c4Cl)nc3c2)c1`, the inhibition (enzyme 55 ng/mL) was 61%. The same measure, in the same setting: next, `Cc1ccc(N=Cc2cc(C(=O)O)ccc2O)c(O)c1`: 42%. As to `O=C([O-])c1ccccn1.OO.OO.[K+].[K+].[O]=[V]`, under “enzyme 37.6 ng/mL”, the inhibition was 71.5%. `O=C(O)c1ccc(O)c(C=Nc2ccc3oc(-c4cc(Cl)ccc4Cl)nc3c2)c1`: the inhibition (enzyme 55 ng/mL) is 39%. On the same count and under the same terms, the same measure for `Cn1nc(/C=C/c2ccccc2)nc2c(=O)n(C)c(=O)nc1-2`: 45%. Regarding `Cc1cc(C)c(N2C(=O)c3ccc(C(=O)Nc4ccc(O)cc4C(=O)O)cc3C2=O)c(C)c1`, the inhibition (enzyme 55 ng/mL) was 44%.

The inhibition is how much of the control response was suppressed.
